Assay results reported in patent US20230203098A1, “HUMAN TRANSFERRIN RECEPTOR BINDING PEPTIDE” (priority 2020, published 2023).
Like-named read-outs stand apart in the source and are kept apart here. Blank lines part the entries; values can stand above or below the compound they belong to. *1 amine or outer side, *2 acyl side, *3 side chain or, on linkers, in order; H or OH if unused. Where a SMILES comes first, the peptide text is derived from it. Bridges are numbered along the chain shown (N, C = ends). Side-chain parts run from the residue outwards. [ ]: non-standard residue; d: D form. The star is where a group is joined. X2 = O=C(O)c1cc(C(=O)*)ccc1-c1c2ccc(=O)cc-2oc2cc(O)ccc12; Trp(1-CH2COOH) = N[C@@H](Cc1cn(CC(=O)O)c2ccccc12)C(=O)O; PEG12 = NCCOCCOCCOCCOCCOCCOCCOCCOCCOCCOCCOCCOCCC(=O)O; NMePhe(3-Cl) = CN[C@@H](Cc1cccc(Cl)c1)C(=O)O; NMeW = CN[C@@H](Cc1c[nH]c2ccccc12)C(=O)O; Phe(3-OMe) = COc1cccc(C[C@H](N)C(=O)O)c1; NMeY = CN[C@@H](Cc1ccc(O)cc1)C(=O)O; NMeF = CN[C@@H](Cc1ccccc1)C(=O)O; Piperazinyl(4-Me) = CN1CCN(*)CC1; PEG4 = NCCOCCOCCOCCOCCC(=O)O; Nva = CCC[C@H](N)C(=O)O; Aib = CC(C)(N)C(=O)O; CO = O=C([*:1])[*:2]

Target: transferrin receptor (hTfR) (Homo sapiens, UniProt P02786)
Sequence (P02786 whole entry): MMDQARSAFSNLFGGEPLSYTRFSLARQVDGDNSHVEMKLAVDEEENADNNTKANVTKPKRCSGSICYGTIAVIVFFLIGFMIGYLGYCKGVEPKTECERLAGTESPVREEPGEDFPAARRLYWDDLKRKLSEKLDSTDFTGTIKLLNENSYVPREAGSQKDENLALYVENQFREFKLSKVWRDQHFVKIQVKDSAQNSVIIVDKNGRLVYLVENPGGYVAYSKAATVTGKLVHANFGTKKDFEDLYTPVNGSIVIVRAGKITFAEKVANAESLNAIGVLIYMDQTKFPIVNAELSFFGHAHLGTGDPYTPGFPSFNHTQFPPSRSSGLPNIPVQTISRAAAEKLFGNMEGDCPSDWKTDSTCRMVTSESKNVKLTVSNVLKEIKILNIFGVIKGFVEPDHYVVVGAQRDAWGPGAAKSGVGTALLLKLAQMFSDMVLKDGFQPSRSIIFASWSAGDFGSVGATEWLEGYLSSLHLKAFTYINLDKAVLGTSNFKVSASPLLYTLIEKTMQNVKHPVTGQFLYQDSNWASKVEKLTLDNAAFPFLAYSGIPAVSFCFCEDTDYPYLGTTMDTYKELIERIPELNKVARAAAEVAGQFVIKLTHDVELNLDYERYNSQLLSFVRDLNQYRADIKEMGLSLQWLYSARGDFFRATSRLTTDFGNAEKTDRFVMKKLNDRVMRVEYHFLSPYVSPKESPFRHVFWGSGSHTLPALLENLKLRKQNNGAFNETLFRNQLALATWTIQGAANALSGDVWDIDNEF
Assay: Intermolecular interaction evaluation test between transferrin receptor (hTfR) and peptide by surface plasmon resonance (SPR)
Assay type: binding
Method in brief: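 hTfR captured on Ni-NTA chip then amine-coupled; peptides run single-cycle kinetics at 5–100 nM in 10 mM HEPES pH 8.0, 150 mM NaCl, 0.05% Tween 20, 0.1% BSA, 1.0% DMSO. KD from least-squares curve fitting of sensorgrams.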

[1] = SPR, peptides, linker-added peptides and FITC conjugates, Patent ID 203-230, read-out: KD
[2] = binding to hTfR by SPR, Table 2 peptides, read-out: KD value (SPR) class
[3] = SPR, hTfR, class symbols A-D, read-out: KD
[4] = SPR, hTfR No. 894 variants with PEG12c linker (Table 2), read-out: KD
[5] = surface plasmon resonance, hTfR, read-out: KD value for hTfR by SPR (class symbol)

Compound: CC[C@H](C)[C@@H]1NC(=O)[C@H](Cc2ccc(O)cc2)NC(=O)[C@H](Cc2ccc(O)cc2)NC(=O)[C@H](CC(N)=O)NC(=O)[C@H](Cc2c[nH]c3ccccc23)NC(=O)[C@H](C(C)C)NC(=O)[C@H](Cc2ccccc2)NC(=O)[C@H](C(C)C)NC(=O)[C@H](C)NC(=O)CSC[C@@H](C(N)=O)NC(=O)[C@H](Cc2ccc(O)cc2)N(C)C(=O)[C@H](Cc2ccc(O)cc2)NC(=O)[C@H](CCC(=O)O)NC(=O)[C@H](CCCNC(=N)N)NC(=O)[C@H]([C@@H](C)CC)NC1=O [compound 257]
Kd [2]: 1 to 100 nM

Compound: CC[C@H](C)[C@@H]1NC(=O)[C@H](Cc2ccc(OC)cc2)NC(=O)[C@H](Cc2ccc(O)cc2)NC(=O)[C@H](CC(N)=O)NC(=O)[C@H](Cc2c[nH]c3ccccc23)N(C)C(=O)[C@H](C(C)C)NC(=O)[C@H](Cc2cccc(Cl)c2)N(C)C(=O)[C@H](C(C)C)NC(=O)[C@H](C)N(C)C(=O)CSC[C@@H](C(N)=O)NC(=O)[C@H](Cc2ccc(O)cc2)N(C)C(=O)[C@H](Cc2ccccc2)NC(=O)[C@@H](C)NC(=O)[C@H](CCCNC(=N)N)NC(=O)[C@H]([C@@H](C)CC)NC1=O [compound 216]
Kd [1]: > 1000 nM

Compound: CC[C@H](C)[C@@H]1NC(=O)[C@H](Cc2ccc(O)cc2)NC(=O)[C@H](Cc2ccc(O)cc2)NC(=O)[C@H](CC(N)=O)NC(=O)[C@H](Cc2ccc(OC)cc2)NC(=O)[C@H](C(C)C)NC(=O)[C@H](Cc2ccccc2)N(C)C(=O)[C@H](C(C)C)NC(=O)[C@H](C)NC(=O)CSC[C@@H](C(=O)NCCOCCOCCOCCOCCOCCOCCOCCOCCOCCOCCOCCOCCC(N)=O)NC(=O)[C@H](Cc2ccc(O)cc2)N(C)C(=O)[C@H](Cc2ccc(O)cc2)NC(=O)[C@H](CCCNC(=N)N)NC(=O)[C@H](CCCNC(=N)N)NC(=O)[C@H]([C@@H](C)CC)NC1=O [compound 118] ({CH2CO}-AV[NMeF]VY(Me)NYYIIRRY[NMeY]C[PEG12]-NH2; thioether N-15)
Kd [4]: 1 to 100 nM

Compound: CC[C@H](C)[C@@H]1NC(=O)[C@H](Cc2ccc(O)cc2)NC(=O)[C@H](Cc2ccc(O)cc2)NC(=O)[C@H](CC(N)=O)NC(=O)[C@H](Cc2cccc(OC)c2)NC(=O)[C@H](C(C)C)NC(=O)[C@H](Cc2ccccc2)N(C)C(=O)[C@H](C(C)C)NC(=O)[C@H](C)NC(=O)CSC[C@@H](C(=O)NCCOCCOCCOCCOCCOCCOCCOCCOCCOCCOCCOCCOCCC(N)=O)NC(=O)[C@H](Cc2ccc(O)cc2)N(C)C(=O)[C@H](Cc2ccc(O)cc2)NC(=O)[C@H](CCCNC(=N)N)NC(=O)[C@H](CCCNC(=N)N)NC(=O)[C@H]([C@@H](C)CC)NC1=O [compound 113] ({CH2CO}-AV[NMeF]V[Phe(3-OMe)]NYYIIRRY[NMeY]C[PEG12]-NH2; thioether N-15)
Kd [4]: < 1 nM

Compound: CC[C@H](C)[C@@H]1NC(=O)[C@H](Cc2ccc(OCCN)cc2)NC(=O)[C@H](Cc2ccc(O)cc2)NC(=O)[C@H](CC(N)=O)NC(=O)[C@H](Cc2c[nH]c3ccccc23)N(C)C(=O)[C@H](C(C)C)NC(=O)[C@H](Cc2cccc(Cl)c2)N(C)C(=O)[C@H](C(C)C)NC(=O)[C@H](C)NC(=O)CSC[C@@H](C(N)=O)NC(=O)[C@H](Cc2ccc(O)cc2)N(C)C(=O)[C@H](Cc2ccccc2)NC(=O)[C@@H](CCCNC(=N)N)NC(=O)[C@H](CCCNC(=N)N)NC(=O)[C@H]([C@@H](C)CC)NC1=O [compound 321]
Kd (surface plasmon resonance, peptide vs hTfR, read-out: KD value, hTfR binding by SPR (class symbol)): 1 to 100 nM

Compound: CC[C@H](C)[C@@H]1NC(=O)[C@H](Cc2ccc(O)cc2)NC(=O)[C@H](Cc2c[nH]c3ccccc23)NC(=O)[C@H](CC(N)=O)NC(=O)[C@H](Cc2c[nH]c3ccccc23)NC(=O)[C@H](C(C)C)NC(=O)[C@H](Cc2ccccc2)N(C)C(=O)[C@H](C(C)C)NC(=O)[C@H](C)NC(=O)CSC[C@@H](C(=O)NCCOCCOCCOCCOCCOCCOCCOCCOCCOCCOCCOCCOCCC(N)=O)NC(=O)[C@H](Cc2ccc(O)cc2)N(C)C(=O)[C@H](Cc2ccc(O)cc2)NC(=O)[C@H](CCCNC(=N)N)NC(=O)[C@H](CCCNC(=N)N)NC(=O)[C@H]([C@@H](C)CC)NC1=O [compound 125] ({CH2CO}-AV[NMeF]VWNWYIIRRY[NMeY]C[PEG12]-NH2; thioether N-15)
Kd [4]: 1 to 100 nM

Compound: CC[C@H](C)[C@@H]1NC(=O)[C@H](Cc2ccc(O)cc2)NC(=O)[C@H](Cc2ccc(O)cc2)NC(=O)[C@H](CC(N)=O)NC(=O)[C@H](Cc2c[nH]c3ccccc23)NC(=O)[C@H](C(C)C)NC(=O)[C@H](Cc2ccccc2)N(C)C(=O)[C@H](C(C)C)NC(=O)[C@H](C)NC(=O)CSC[C@@H](C(=O)NCC(=O)N[C@@H](CCCCN)C(N)=O)NC(=O)[C@H](Cc2ccc(O)cc2)N(C)C(=O)[C@H](Cc2ccc(O)cc2)NC(=O)[C@H](CCCNC(=N)N)NC(=O)[C@H](CCCCN)NC(=O)[C@H]([C@@H](C)CC)NC1=O [compound 526]
Kd (SPR, hTfR, class symbols A-D, read-out: KD (column without head, continuation of the table series)): 1 to 100 nM

Results, then the compound that gave them:

Kd [1]: 1 to 100 nM
Compound: CC[C@H](C)[C@@H]1NC(=O)[C@H](Cc2ccc(O)cc2)NC(=O)[C@H](Cc2ccc(O)cc2)NC(=O)[C@H](CC(N)=O)NC(=O)[C@H](Cc2c[nH]c3ccccc23)NC(=O)[C@H](C(C)C)NC(=O)[C@H](Cc2ccccc2)NC(=O)[C@H](C(C)C)NC(=O)[C@H](C)NC(=O)CSC[C@@H](C(=O)NCCOCCOCCOCCOCCOCCOCCOCCOCCOCCOCCOCCOCCC(=O)N[C@@H](CCCCNC(=O)c2ccc(-c3c4ccc(=O)cc-4oc4cc(O)ccc34)c(C(=O)O)c2)C(N)=O)NC(=O)[C@H](Cc2c[nH]c3ccccc23)N(C)C(=O)[C@H](CCCNC(=N)N)NC(=O)[C@@H]2CCCN2C(=O)[C@H](C(C)C)NC1=O [compound 210] ({CH2CO}-AVFVWNYYIVPR[NMeW]C[PEG12]K(X2)-NH2; thioether N-14)

Kd [3]: 100 to 1000 nM
Compound: CC[C@H](C)[C@@H]1NC(=O)[C@H](Cc2ccc(O)cc2)NC(=O)[C@H](Cc2ccc(O)cc2)NC(=O)[C@H](CC(N)=O)NC(=O)[C@H](Cc2cn(CC(=O)O)c3ccccc23)NC(=O)[C@H](C(C)C)NC(=O)[C@H](Cc2ccccc2)N(C)C(=O)[C@H](C(C)C)NC(=O)[C@H](C)NC(=O)CSC[C@@H](C(=O)N[C@H](CCC(=O)O)C(N)=O)NC(=O)[C@H](Cc2ccc(O)cc2)N(C)C(=O)[C@H](Cc2ccc(O)cc2)NC(=O)[C@@H](CCCNC(=N)N)NC(=O)[C@H](CCCNC(=N)N)NC(=O)[C@H](CCC(=O)O)NC1=O [compound 473] ({CH2CO}-AV[NMeF]V[Trp(1-CH2COOH)]NYYIER[dR]Y[NMeY]C[dE]-NH2; thioether N-15)

Kd [2]: > 1000 nM
Compound: CC[C@H](C)[C@@H]1NC(=O)[C@H](Cc2ccc(O)cc2)NC(=O)[C@H](Cc2ccc(O)cc2)NC(=O)[C@H](CC(N)=O)NC(=O)[C@H](Cc2c[nH]c3ccccc23)NC(=O)[C@H](C(C)C)NC(=O)[C@H](Cc2ccccc2)N(C)C(=O)[C@H](C(C)C)NC(=O)[C@H](C)NC(=O)CSC[C@@H](C(=O)NCCOCCOCCOCCOCCC(N)=O)NC(=O)[C@H](Cc2ccc(O)cc2)N(C)C(=O)[C@H](Cc2ccc(O)cc2)NC(=O)[C@H](CCCCNC(=O)N2CCN(C)CC2)NC(=O)C(C)(C)NC(=O)[C@H]([C@@H](C)CC)NC1=O [compound 290] ({CH2CO}-AV[NMeF]VWNYYII[Aib]K([CO-Piperazinyl(4-Me)])Y[NMeY]C[PEG4]-NH2; thioether N-15)

Kd [5]: 1 to 100 nM
Compound: CC[C@H](C)[C@@H]1NC(=O)[C@H](Cc2ccc(OC)cc2)NC(=O)[C@H](Cc2ccc(O)cc2)NC(=O)[C@H](CC(N)=O)NC(=O)[C@H](Cc2c[nH]c3ccccc23)N(C)C(=O)[C@H](C(C)C)NC(=O)[C@H](Cc2cccc(Cl)c2)N(C)C(=O)[C@H](C(C)C)NC(=O)[C@H](C)NC(=O)CSC[C@@H](C(N)=O)NC(=O)[C@H](Cc2ccc(O)cc2)N(C)C(=O)[C@H](Cc2ccccc2)NC(=O)[C@@H](C)NC(=O)[C@H](CCCCN)NC(=O)[C@H]([C@@H](C)CC)NC1=O [compound 372]

Kd [3]: > 1000 nM
Compound: CC[C@H](C)[C@@H]1NC(=O)[C@H](Cc2ccc(OC)cc2)NC(=O)[C@H](Cc2ccc(O)cc2)NC(=O)[C@H](CC(N)=O)NC(=O)[C@H](Cc2c[nH]c3ccc(Cl)cc23)NC(=O)[C@H](C(C)C)NC(=O)[C@H](Cc2cccc(Cl)c2)N(C)C(=O)[C@H](C(C)C)NC(=O)[C@H](C)NC(=O)CSC[C@@H](C(N)=O)NC(=O)[C@H](Cc2ccc(O)cc2)N(C)C(=O)[C@H](Cc2ccccc2)NC(=O)[C@@H](CCCNC(=N)N)NC(=O)[C@H](CCCNC(=N)N)NC(=O)[C@H]([C@@H](C)CC)NC1=O [compound 464]

Kd [2]: < 1 nM
Compound: CC[C@H](C)[C@@H]1NC(=O)[C@H](Cc2ccc(O)cc2)NC(=O)[C@H](Cc2ccc(O)cc2)NC(=O)[C@H](CC(N)=O)NC(=O)[C@H](Cc2c[nH]c3ccccc23)NC(=O)[C@H](C(C)C)NC(=O)[C@H](Cc2ccccc2)NC(=O)[C@H](C(C)C)NC(=O)[C@H](C)NC(=O)CSC[C@@H](C(N)=O)NC(=O)[C@H](Cc2ccc(O)cc2)N(C)C(=O)[C@H](Cc2ccc(O)cc2)NC(=O)[C@H](CCCNC(=N)N)NC(=O)[C@H](CCCCN)NC(=O)[C@H]([C@@H](C)CC)NC1=O [compound 255]

Kd [5]: < 1 nM
Compound: CC[C@H](C)[C@@H]1NC(=O)[C@H](Cc2ccc(OC)cc2)NC(=O)[C@H](Cc2ccc(O)cc2)NC(=O)[C@H](CC(N)=O)NC(=O)[C@H](Cc2c[nH]c3ccccc23)N(C)C(=O)[C@H](C(C)C)NC(=O)[C@H](Cc2cccc(Cl)c2)N(C)C(=O)[C@H](C(C)C)NC(=O)[C@H](C)NC(=O)CSC[C@@H](C(N)=O)NC(=O)[C@H](Cc2ccc(O)cc2)N(C)C(=O)[C@H](Cc2ccccc2)NC(=O)[C@H](CCCNC(=N)N)NC(=O)[C@H](CCCCN)NC(=O)[C@H]([C@@H](C)CC)NC1=O [compound 371]

Kd [5]: 1 to 100 nM
Compound: CCC[C@@H]1NC(=O)[C@H]([C@@H](C)CC)NC(=O)[C@H]([C@@H](C)CC)NC(=O)[C@H](Cc2ccc(OC)cc2)NC(=O)[C@H](Cc2ccc(O)cc2)NC(=O)[C@H](CC(N)=O)NC(=O)[C@H](Cc2c[nH]c3ccccc23)N(C)C(=O)[C@H](C(C)C)NC(=O)[C@H](Cc2cccc(Cl)c2)N(C)C(=O)[C@H](C(C)C)NC(=O)[C@H](C)NC(=O)CSC[C@@H](C(=O)NCCOCCOCCOCCOCCC(N)=O)NC(=O)[C@H](Cc2ccc(O)cc2)N(C)C(=O)[C@H](Cc2ccccc2)NC(=O)[C@@H](CCCNC(=N)N)NC1=O [compound 360] ({CH2CO}-AV[NMePhe(3-Cl)]V[NMeW]NYY(Me)II[Nva][dR]F[NMeY]C[PEG4]-NH2; thioether N-15)
